Values after ≈ are worked out from the molar mass of the structure shown. “Also recorded” adds a separate entry of the source.
How the values were obtained:
[1] = tested on: KB human nasopharyngeal carcinoma cells; assay: Cytotoxicity (antiproliferative effect), crystal violet staining; format: cell-based; settings: Homo sapiens, KB, 72 h, Table 2; KB cells, 3 days; read-out: KB cells, toxicity TD50
Description: KB human nasopharyngeal carcinoma cells, were maintained in RPMI 1640 medium supplemented with 10% fetal bovine serum. KB cells were cultured in plastic tissue culture flasks and kept in an incubator at 37° C. in humidified air containing 5% CO2. These cells were free of Mycoplasma as determined with Hoechst 33258 stain.
The antiproliferative effect of compounds was determined using cell staining method by crystal violet.
One hundred-μ1 cultures were established at 10^3 cells/well in 96-well tissue culture plates (Nunc, Roskilde, Denmark). After 24 h. 100 µl of the medium containing 2 times concentrated the compounds were added to the cell culture. After an additional 3 days culture, cells were fixed to 20 µl of 25% glutaraldehyde for 15 minutes and washed with water, dried and stained with 0.05% crystal violet in 20% methanol for 15 minutes. After washing with water and drying, crystal violet was extracted with 100 µl of 50 mM NaH2 PO4 /ethanol (1:1 v/v) and OD540 was measured by the multiscanphotometer (Corona, Tokyo, Japan). A linear relationship between cell number and the amount of dye binding was found over the range of cell densities observed all experiments.

[2] = tested on: DNA; assay: Site and sequence selective DNA alkylation by polyacrylamide gel electrophoresis (PAGE); format: biochemical; settings: for Alkylation Intensity at ATAA*: site ATAA*
Text: In contrast to FCE 24517, clear evidence of site and sequence selective DNA alkylation was obtained for the new CPI-oligopeptides by polyacrylamide gel electrophoresis (PAGE). […] Table 5 quantifies and compares the alkylation intensities at different sites for the CPI-oligopeptides with CC-1065. […] A detailed analysis of the frequency of occurrence of bases flanking the prominent alkylation sites for YW-052 and YW-053 compared with CC-1065 is given in Table 7.

[3] = tested on: DNA; settings: in words; cited from earlier work
[4] = clinical applications/usage; in words; cited from earlier work

## COc1c(O)c2c(c3cc(C(=O)N4CCc5c4c(O)c(OC)c4[nH]c(C(=O)N6CC7CC78C6=CC(=O)c6[nH]cc(C)c68)cc54)[nH]c13)CCN2C(N)=O (stereo not drawn) [CC-1065, reference compound]
[1]
  IC50: 0.001 ng/mL (≈ 0.00142 nM)
[2]; A, position +1
  Frequency of Occurrence, base A at +1: 30%
[2]; A, position +2
  Frequency of Occurrence, base A at +2: 30%
[2]; A, position +3
  Frequency of Occurrence, base A at +3: 20%
[2]; A, position -1
  Frequency of Occurrence, base A at -1: 40%
[2]; A, position -2
  Frequency of Occurrence, base A at -2: 40%
[2]; A, position -3
  Frequency of Occurrence, base A at -3: 30%
[2]; A/T, position +1
  Frequency of Occurrence, A/T at +1: 80%
[2]; A/T, position +2
  Frequency of Occurrence, A/T at +2: 60%
[2]; A/T, position +3
  Frequency of Occurrence, A/T at +3: 50%
[2]; A/T, position -1
  Frequency of Occurrence, A/T at -1: 100%
[2]; A/T, position -2
  Frequency of Occurrence, A/T at -2: 100%
[2]; A/T, position -3
  Frequency of Occurrence, A/T at -3: 60%
[2]; C, position +3
  Frequency of Occurrence, base C at +3: 10%
[2]; C, position -3
  Frequency of Occurrence, base C at -3: 30%
[2]; G, position +1
  Frequency of Occurrence, base G at +1: 20%
[2]; G, position +2
  Frequency of Occurrence, base G at +2: 40%
[2]; G, position +3
  Frequency of Occurrence, base G at +3: 40%
[2]; G, position -3
  Frequency of Occurrence, base G at -3: 10%
[2]; PAGE, in words
  DNA alkylation: alkylate DNA strongly
[2]; T, position +1
  Frequency of Occurrence, base T at +1: 50%
[2]; T, position +2
  Frequency of Occurrence, base T at +2: 30%
[2]; T, position +3
  Frequency of Occurrence, base T at +3: 30%
[2]; T, position -1
  Frequency of Occurrence, base T at -1: 60%
[2]; T, position -2
  Frequency of Occurrence, base T at -2: 60%
[2]; T, position -3
  Frequency of Occurrence, base T at -3: 30%
[2]; alkylated base A*
  Frequency of Occurrence, A* (site of alkylation): 100%
[2]; alkylated base G*
  Frequency of Occurrence, G* (site of alkylation): 0%
[2]; moderate sites
  Alkylation Sites (5'-3'), Moderate: TATA, TTAA, GTTA; also recorded: CTTA, GGAA
[2]; site AATA*
  Alkylation Intensity at AATA*: 1.08
[2]; first column of Table 5
  Alkylation Intensity at ATAA*: 1.47
[2]; third column of Table 5
  Alkylation Intensity at ATAA*: .96
[2]; site CTTA
  Alkylation Intensity at CTTA: .61
[2]; site GAAA
  Alkylation Intensity at GAAA: .35
[2]; site GATA*
  Alkylation Intensity at GATA*: .80
[2]; site GTTA
  Alkylation Intensity at GTTA: 1.20
[2]; site TATA
  Alkylation Intensity at TATA: 1.02
[2]; site TTAA*
  Alkylation Intensity at TTAA*: .80
[2]; site TTTA
  Alkylation Intensity at TTTA: 1.09
[2]; strong sites
  Alkylation Sites (5'-3'), Strong: TTTA, GATA, ATAA; also recorded: AATA, ATAA
[3]
  DNA sequence recognition: strictly AT recognizing; also recorded: strictly limited AATT recognition
[4]
  toxicity (delayed death syndrome): too toxic for clinical applications because of the delayed death syndrome; also recorded: too toxic for clinical usage
